This note sets out measurements from publication PMC11434868, “Synthesis and Antiproliferative Effect of 3,4,5-Trimethoxylated Chalcones on Colorectal and Prostatic Cancer Cells” (Pharmaceuticals, 2024).

Read-outs that look alike come from different tables or passages of the source.

The test system of test [1] is HCT116. The experiment in a line: MTT assay, antiproliferative effect on HCT116. The conditions noted are these: Homo sapiens. The format is cell-based. The protocol: (§1) Human CRC (HCT116 and HT-29) and PCa (DU145 and PC3) cell lines were purchased from the American Type Culture Collection (ATCC—LGC Standards, Molsheim, France). All cells were grown in RPMI 1640 medium supplemented with 10% FBS, 1% L-glutamine, 100 U/mL penicillin, and 100 μg/mL streptomycin. Cultures were maintained in a humidified atmosphere containing 5% CO2 at 37 °C. Cells were seeded in 75 cm^2 culture flasks at 1.2 × 10^4 cells/cm^2 for HCT116, DU145, and PC3 cells, and 2.0 × 10^4 for HT-29 cells. Cells were grown for 24 h in culture medium prior to exposure or not to obtain the synthesized compounds. Stock solutions (10^−2 M in DMSO) of each compound were diluted in culture medium to obtain appropriate final concentrations.
(§2) • (a) MTT assay: The antiproliferative effect of all compounds was determined using MTT assay (a metabolic activity test). Briefly, cells were seeded in 96-well culture plates at 4 × 10^3 cells/well for HCT116, PC3, and DU145 cells and 6 × 10^3 cells/well for HT-29 cells (100 µL/well), and grown for 24 h in culture medium prior to exposure or not to obtain compounds 1–15 with concentrations ranging from 5 nM to 50 μM. After 24 and 48 h of treatment, MTT (5 mg/mL in PBS) was added and incubated for another 3 h. MTT was then removed from the wells before adding 100 μL/well of DMSO. The optical density was detected with a microplate reader (Multiskan FC, Thermoscientific, Bordeaux, France) at 550 nm and cell viability was expressed as a percentage of each treatment condition compared to control cells. IC50 values were calculated for all compounds from the dose–response curve. Data are expressed as the arithmetic means ± standard error of the mean (SEM) of separate experiments. All experiments were performed at least in triplicate. • (b) Trypan blue dye exclusion method: Cells were grown for 24 h then treated with compounds 10 and 13 at indicated concentrations. After 48 h of treatment, cells were trypsinized and resuspended in complete medium. Each sample was mixed with Trypan blue solution (0.14% in HBSS, Invitrogen-GIBCO, ThermoFisher, Illkirch, France). Colored (non-viable) and dye-excluding (viable) cells were counted with the LUNA-II automated cell Counter (Logos Biosystems; MC2, Aubière, France). The control was normalized to 100% including viable and dead cells. The results indicated on the histograms were expressed as the percentage of cells compared to the control. IC50 values were determined from the percentages of viable cells compared to the control.

The test system of test [2] is human PCa (DU145 and PC3) cell lines. As to the kind of experiment: MTT assay, summary statements for PCa cells. The test is classed as cell-based. The protocol:
as §1, §2
On the technique in general: Formazan colour is commonly taken as a measure of viable cells.

The test system of test [3] is DU145. As to the kind of experiment: MTT assay, antiproliferative effect on DU145. The format is cell-based. The conditions noted are these: Homo sapiens. The procedure: as §1, §2
Test [4] concerns cellular microtubules in HeLa cells. The experiment in a line: Quantitative assay of the cellular microtubule content (immunoluminescence). The format is cell-based. Conditions: Homo sapiens, 0.5 h, 30 min incubation. The protocol:
The assay was realized as described by Laisne et al.. Briefly, 7500 HeLa cells were seeded in 96-well microplates (#655086, Greiner bioOne, Courtaboeuf, France) in 100 µL of complete medium per well and then incubated at 37 °C in 5% CO2 for 24 h. Cells were then treated for 30 min at 37 °C with the compounds at concentrations ranging from 0.1 to 1000 µM (1 microplate per molecule, 1 concentration per column), with 0.1% DMSO used as […] (6 wells per microplate). After medium aspiration, treated cells were permeabilized for 10 min using 100 µL per well of warmed (37 °C) OPT buffer (80 mM Pipes, 1 mM EGTA, 1 mM MgCl2, 0.5% Triton X-100, and 10% glycerol, pH 6.8). Cells were fixed overnight at room temperature using 100 µL per well of 4% formaldehyde (Sigma Aldrich, #252549, Saint-Quentin-Fallavier, France) in PBS. Cells were washed 3 times in PBS, 0.1% Tween-20 (100 µL per well), then primary anti-alpha-tubulin antibody (clone α3A1), 1:5000 in PBS 2% Bovine Serum Albumin (BSA), was added for 45 min. Cells were washed twice again and secondary anti-mouse antibody coupled to HRP (1:2000 in PBS 2% BSA, #715-035-150, Jackson Immuno-Research Laboratories, Cambridgeshire, UK) was added for 45 min. Then, cells were washed again with PBS and 100 µL of ECL substrate (#170-5061, Bio-Rad Laboratories Inc., Hercules, CA, USA) was injected in each well using the FLUOstar OPTIMA Microplate Reader (BMG Lab technology, Champagny-sur-Marne, France). The luminescent signal was read immediately after ECL injection. IC50 values were calculated using GraphPad Prism software (10.3.1 version) and are presented in the text as means ± SEM of three independent experiments.

For test [5], the system named is HT-29. The experiment in a line: MTT assay, antiproliferative effect on HT-29. The format is cell-based, human. The procedure:
as §1, §2

For test [6], the system named is PC3. The experiment in a line: MTT assay, antiproliferative effect on PC3. The format is cell-based. Conditions: Homo sapiens. The protocol: as §1, §2
Test [7] deals with HeLa cells microtubules. As to the kind of experiment: Tubulin immunofluorescence. The format is cell-based. The conditions noted are these: 30 min, chalcone 8 at 1 µM or chalcone 2 at 200 µM. The protocol:
Cells at a density of 20,000 cells per well were grown for 48 h on glass coverslips placed in a 24-well microplate. When cells reached 70% confluence, the medium was replaced with a fresh one supplemented with DMSO (0.005% or 0.01%) or the test compound at 1 or 200 µM. After 30 min of incubation, cells were permeabilized in warm OPT buffer (80 mmol/L Pipes, […], 0.5% Triton X-100 and 10% Glycerol, pH 6.8) and fixed for 6 min in −20 °C methanol (Carlo ERBA SAS, #414855, Val-de-Reuil, France). After washing and saturation with a specific blocking buffer (3% BSA), 10% Goat serum (Gibco Invitrogen, #16210064, Carlsbad, CA, USA) in PBS, cells were incubated for 45 min at room temperature (RT) with anti-alpha-tubulin antibody (clone α3A1 in blocking buffer). Cells were washed twice again and subsequently incubated with Alexa 488 conjugated anti-mouse antibody (1:500 in blocking buffer, #115-545-166, Jackson immune-research laboratory, Cambridgeshire, UK) and DNA was stained with Dapi which was included in mounting media (Dapi fluoromount, #0100-20, Clinisciences, France). Images were captured with a Zeiss AxioimagerM2 microscope (Zeiss microscopy, Rueil Malmaison, France) equipped with the acquisition software AxioVision (4.8 version, Marly-le-Roi, France).

The mark [8] stands for this setting: HCT-116, 24 h, read-out: IC50 HCT116 24 h.
Setting [9] is: HCT-116, 48 h, read-out: IC50 HCT116 48 h.
The mark [10] stands for this setting: DU-145, 24 h, read-out: IC50 DU145 24 h.
[11] abbreviates: DU-145, 48 h, read-out: IC50 DU145 48 h.
Where [12] appears, read: read-out: IC50 depolymerization of cellular microtubules.
The mark [13] stands for this setting: 48 h, read-out: IC50 HT-29 48 h.
[14] abbreviates: Homo sapiens, HT-29, 24 h, 24 h, read-out: IC50 HT-29 24 h.
[15] abbreviates: Homo sapiens, HT-29, 48 h, 48 h, read-out: IC50 HT-29 48 h.
The mark [16] stands for this setting: PC-3, 24 h, read-out: IC50 PC3 24 h.
The mark [17] stands for this setting: PC-3, 48 h, read-out: IC50 PC3 48 h.

Usually IC50 stands for the concentration needed to halve the response being measured. Turning to `COc1cc(C(=O)/C=C/c2cccc(O)c2)cc(OC)c1OC` [chalcone 2, (E)-3-(3-hydroxyphenyl)-1-(3,4,5-trimethoxyphenyl)prop-2-en-1-one], the IC50 is 4.23 ± 0.11 µM in test [1] (setting [8]); 2.66 ± 0.1 µM in test [1] (setting [9]); around 3 µM in test [2] (Homo sapiens, DU-145, DU145 and PC3, text summary, read-out: IC50 against PCa cells); 3.47 ± 0.24 µM in test [3] (setting [10]); 2.97 ± 0.15 µM in test [3] (setting [11]); 106 ± 4.69 µM in test [4] (no unit in the picture, read-out: IC50 microtubule contents (printed in Figure 8)). Moreover, the IC50 in test [4] (setting [12]) worked out at 106 ± 4.7 µM; in test [5] (setting [13]), 7.34 ± 0.22 µM; in test [5] (setting [14]) it was 9.87 ± 0.44 µM; in test [5] (setting [15]) it was 7.3 µM; in test [6] (setting [16]), 3.76 ± 0.28 µM; in test [6] (setting [17]), 3.44 ± 0.11 µM. Besides, in test [7], the “state of tubulin / microtubules by immunofluorescence” value is reported as “tubulin is mainly in its depolymerized form”.

As for `COc1ccc(/C=C/C(=O)c2cc(OC)c(OC)c(OC)c2)cc1O` [chalcone 8, (E)-3-(3-hydroxy-4-methoxyphenyl)-1-(3,4,5-trimethoxyphenyl)prop-2-en-1-one], the IC50 in test [1] (setting [8]) is 0.22 ± 0.01 µM; in test [1] (setting [9]), 0.11 ± 0.02 µM; in test [2] (DU145 and PC3, read-out: IC50 towards PCa cells), around 0.02 µM; in test [2] (Homo sapiens, DU-145, DU145 and PC3, text summary, read-out: IC50 towards PCa cells), 0.017 to 0.031 µM; in test [3] (setting [10]), 0.036 ± 0.002 µM; in test [3] (setting [11]), 0.031 ± 0.001 µM. In addition, the IC50 was determined as 0.289 ± 0.045 µM in test [4] (setting [12]); 8.11 ± 0.5 µM in test [5] (setting [13]); 8.03 ± 0.18 µM in test [5] (setting [14]); 8.1 µM in test [5] (setting [15]); 0.021 ± 0.001 µM in test [6] (setting [16]); 0.02 ± 0.001 µM in test [6] (setting [17]). In addition, the “state of tubulin / microtubules by immunofluorescence” value in test [7] is “tubulin is mainly in its depolymerized form”.
